Assay results published in patent US20250154144A1 (CHILDREN'S HOSPITAL MEDICAL CENTER, priority 2021, published 2025).
Read-outs that look alike come from different tables or passages of the source.

Tests used:
THP1 cells = experiment: Combination drug screening, Cell Titer Glo, 10 × 10 matrix, THP1 cells; type: cell-based
MOLM14(D835Y) cells = type: cell-based; conditions: MOLM14(D835Y), 10 × 10
[1] = starting conc. 20000 nM, with (+)-BAY-1251152 starting conc. 1000 nM
[2] = starting conc. 20000 nM, with Azacitidine (5-Azacytidine) starting conc. 20000 nM
[3] = starting conc. 20000 nM, with Palbociclib starting conc. 10000 nM
[4] = starting conc. 20000 nM, with Prednisolone starting conc. 10000 nM
[5] = starting conc. 20000 nM, with TNO-155 starting conc. 10000 nM
[6] = starting conc. 20000 nM, with Venetoclax (ABT-199) starting conc. 2000 nM
[7] = starting conc. 20000 nM, with Venetoclax (ABT-199) starting conc. 20000 nM
[8] = title compound starting conc. 20000 nM + (+)-BAY-1251152 starting conc. 1000 nM
[9] = title compound starting conc. 20000 nM + Azacitidine (5-Azacytidine) starting conc. 20000 nM
[10] = title compound starting conc. 20000 nM + Palbociclib starting conc. 10000 nM
[11] = title compound starting conc. 20000 nM + Prednisolone starting conc. 10000 nM
[12] = title compound starting conc. 20000 nM + TNO-155 starting conc. 10000 nM
[13] = title compound starting conc. 20000 nM + Venetoclax (ABT-199) starting conc. 2000 nM
[14] = title compound starting conc. 20000 nM + Venetoclax (ABT-199) starting conc. 20000 nM
[15] = starting conc. 2000 nM, with (+)-BAY-1251152 starting conc. 1000 nM
[16] = starting conc. 2000 nM, with Azacitidine (5-Azacytidine) starting conc. 20000 nM
[17] = starting conc. 2000 nM, with Palbociclib starting conc. 10000 nM
[18] = starting conc. 2000 nM, with Prednisolone starting conc. 10000 nM
[19] = starting conc. 2000 nM, with TNO-155 starting conc. 10000 nM
[20] = starting conc. 2000 nM, with Venetoclax (ABT-199) starting conc. 2000 nM
[21] = starting conc. 2000 nM, with Venetoclax (ABT-199) starting conc. 20000 nM

CCc1nc(C(N)=O)c(Nc2ccc(N3CCC(N4CCN(C)CC4)CC3)c(OC)c2)nc1NC1CCOCC1 [Gilteritinib hemifumarate, Gilteritinib, reference compound]
Excess HSA Score (THP1 cells; starting conc. 500 nM, with (+)-BAY-1251152 starting conc. 1000 nM): −10.1945 | Excess HSA Score (THP1 cells; starting conc. 500 nM, with Azacitidine (5-Azacytidine) starting conc. 20000 nM): −354.4 | Excess HSA Score (THP1 cells; starting conc. 500 nM, with Palbociclib starting conc. 10000 nM): −228 | Excess HSA Score (THP1 cells; starting conc. 500 nM, with Prednisolone starting conc. 10000 nM): 119.9 | Excess HSA Score (THP1 cells; starting conc. 500 nM, with TNO-155 starting conc. 10000 nM): 15.34 | Excess HSA Score (THP1 cells; starting conc. 500 nM, with Venetoclax (ABT-199) starting conc. 2000 nM): −95.51 | Excess HSA Score (THP1 cells; starting conc. 500 nM, with Venetoclax (ABT-199) starting conc. 20000 nM): −866.3 | Excess HSA Score (THP1 cells; [1]): −484.1 | Excess HSA Score (THP1 cells; [2]): −391.5 | Excess HSA Score (THP1 cells; [3]): −415 | Excess HSA Score (THP1 cells; [4]): −149.2201 | Excess HSA Score (THP1 cells; [5]): −398.3 | Excess HSA Score (THP1 cells; [6]): −448 | Excess HSA Score (THP1 cells; [7]): −1390 | Excess HSA Score (MOLM14(D835Y) cells; title compound starting conc. 500 nM + (+)-BAY-1251152 starting conc. 1000 nM): 161.1 | Excess HSA Score (MOLM14(D835Y) cells; title compound starting conc. 500 nM + Azacitidine (5-Azacytidine) starting conc. 20000 nM): −848 | Excess HSA Score (MOLM14(D835Y) cells; title compound starting conc. 500 nM + Palbociclib starting conc. 10000 nM): −910.3 | Excess HSA Score (MOLM14(D835Y) cells; title compound starting conc. 500 nM + Prednisolone starting conc. 10000 nM): −285.8 | Excess HSA Score (MOLM14(D835Y) cells; title compound starting conc. 500 nM + TNO-155 starting conc. 10000 nM): −773.9 | Excess HSA Score (MOLM14(D835Y) cells; title compound starting conc. 500 nM + Venetoclax (ABT-199) starting conc. 2000 nM): −704 | Excess HSA Score (MOLM14(D835Y) cells; title compound starting conc. 500 nM + Venetoclax (ABT-199) starting conc. 20000 nM): −237.3 | Excess HSA Score (MOLM14(D835Y) cells; [8]): 43.97 | Excess HSA Score (MOLM14(D835Y) cells; [9]): −117 | Excess HSA Score (MOLM14(D835Y) cells; [10]): −262.1121 | Excess HSA Score (MOLM14(D835Y) cells; [11]): −290.6 | Excess HSA Score (MOLM14(D835Y) cells; [12]): −494.5 | Excess HSA Score (MOLM14(D835Y) cells; [13]): −876.4 | Excess HSA Score (MOLM14(D835Y) cells; [14]): −271.3

Cc1cc(-c2nc(C(=O)Nc3cc4oc(N5CCOCC5)nc4nc3N3CC[C@@H](O)C3)co2)ccn1 [CA-4948, reference compound]
Comments (THP1 cells; [15]): Antagonistic at both | Excess HSA Score (THP1 cells; [15]): 43.42 | Comments (THP1 cells; [16]): Synergistic | Excess HSA Score (THP1 cells; [16]): −147.4 | Comments (THP1 cells; [17]): Synergistic | Excess HSA Score (THP1 cells; [17]): −41.44 | Comments (THP1 cells; [18]): Antagonistic | Excess HSA Score (THP1 cells; [18]): 28.64 | Comments (THP1 cells; [19]): Antagonistic | Excess HSA Score (THP1 cells; [19]): 22.1261 | Comments (THP1 cells; [20]): Antagonistic | Excess HSA Score (THP1 cells; [20]): 806.5237 | Comments (THP1 cells; [21]): Synergistic; Optimal | Excess HSA Score (THP1 cells; [21]): −48.9669 | Comments (THP1 cells; [1]): Antagonistic at both | Excess HSA Score (THP1 cells; [1]): 230.5 | Comments (THP1 cells; [2]): Synergistic | Excess HSA Score (THP1 cells; [2]): −562.3 | Comments (THP1 cells; [3]): Antagonistic | Excess HSA Score (THP1 cells; [3]): 579.4 | Comments (THP1 cells; [4]): Synergistic | Excess HSA Score (THP1 cells; [4]): −33.05 | Comments (THP1 cells; [5]): Additive | Excess HSA Score (THP1 cells; [5]): −0.9078 | Comments (THP1 cells; [6]): Synergistic; Optimal | Excess HSA Score (THP1 cells; [6]): −352.8 | Comments (THP1 cells; [7]): Synergistic; Optimal | Excess HSA Score (THP1 cells; [7]): −979.3 | Excess HSA Score (MOLM14(D835Y) cells; title compound starting conc. 2000 nM + (+)-BAY-1251152 starting conc. 1000 nM): −153.6 | Excess HSA Score (MOLM14(D835Y) cells; title compound starting conc. 2000 nM + Azacitidine (5-Azacytidine) starting conc. 20000 nM): −672.6 | Excess HSA Score (MOLM14(D835Y) cells; title compound starting conc. 2000 nM + Palbociclib starting conc. 10000 nM): −930 | Excess HSA Score (MOLM14(D835Y) cells; title compound starting conc. 2000 nM + Prednisolone starting conc. 10000 nM): −435.8 | Excess HSA Score (MOLM14(D835Y) cells; title compound starting conc. 2000 nM + TNO-155 starting conc. 10000 nM): −1272 | Excess HSA Score (MOLM14(D835Y) cells; title compound starting conc. 2000 nM + Venetoclax (ABT-199) starting conc. 2000 nM): −280.9 | Excess HSA Score (MOLM14(D835Y) cells; title compound starting conc. 2000 nM + Venetoclax (ABT-199) starting conc. 20000 nM): −1172 | Excess HSA Score (MOLM14(D835Y) cells; [8]): −195.3 | Excess HSA Score (MOLM14(D835Y) cells; [9]): −612.1 | Excess HSA Score (MOLM14(D835Y) cells; [10]): −90.76 | Excess HSA Score (MOLM14(D835Y) cells; [11]): −397.1 | Excess HSA Score (MOLM14(D835Y) cells; [12]): −1174 | Excess HSA Score (MOLM14(D835Y) cells; [13]): −1088 | Excess HSA Score (MOLM14(D835Y) cells; [14]): −1078.145
